Data reported in patent publication US20140249135A1, “PIM KINASE INHIBITORS AND METHODS OF THEIR USE” (NOVARTIS AG, priority 2007, published 2014).
Values joined by “and” are separate entries in the source; they are usually repeats but may differ in a detail not shown here. Identical values can stand only once.

Tests used:
Pim1 kinase = Pim1 kinase (Homo sapiens, UniProt P11309); experiment: Pim1 ATP depletion assay; assay type: biochemical; conditions: Pim1 ATP depletion assay; read-out: IC50 (μM) PIM1;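 also: Luciferase-luciferin luminescence readout of residual ATP after PIM1 transfers phosphate to a peptide substrate, 40 µM ATP added, reaction run to roughly half ATP consumption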
Pim3 kinase = Pim3 kinase (Homo sapiens, UniProt Q86V86); experiment: Pim3 ATP depletion assay; assay type: biochemical; conditions: read-out: IC50 (μM) PIM3
PC3 cells = experiment: Cell proliferation assay (CellTiter-Glo), PC3; assay type: cell-based; conditions: Homo sapiens, PC-3
Experimental: HEL 92.1.7 cells (ATTC No. TIB-180, an erythroleukemia line derived from malignant peripheral blood), MV4-11 cells (ATCC No. CRL-9591, a human acute monocytic leukemia line) and PC3 cells (ATCC No. CRL-1435, a human prostatic adenocarcinoma line) were cultured in RPMI1640 supplemented with 10% FBS, sodium pyruvate and antibiotics. Cells were plated in the same medium at a density of 1000 cells per well into 96 well tissue culture plates, with outside wells vacant, on the day of assay.
Test compounds supplied in DMSO were diluted into DMSO at 500 times the desired final concentrations before dilution into culture media to 2 times final concentrations. Equal volumes of 2× compounds were added to the cells in 96 well plates and incubated at 37° C. for 3 days.
After 3 days plates were equilibrated to room temperature and equal volume of CellTiter-Glow Reagent (Promega) was added to the culture wells. The plates were agitated briefly and luminescent signal was measured with luminometer. The percent inhibition of the signal seen in cells treated with DMSO alone vs. cells treated with control compound was calculated and used to determine EC50 values (i.e., the concentration of a test compound that is required to obtain 50% of the maximum effect in the cells) for tested compounds, as shown in Example 763.

[1] = biological target: T1, human full length PKCE enzyme (Homo sapiens, UniProt Q02156); experiment: In vitro PKCE assay; assay type: biochemical; conditions: 10 nM enzyme, 40 uM peptide substrate, 20 uM ATP, KinaseGlo Plus readout; read-out: PKCε IC50
T1 construct: human full length PKCE enzyme purchased from InVitrogen; purchased InVitrogen
T1 sequence (Q02156 1-737): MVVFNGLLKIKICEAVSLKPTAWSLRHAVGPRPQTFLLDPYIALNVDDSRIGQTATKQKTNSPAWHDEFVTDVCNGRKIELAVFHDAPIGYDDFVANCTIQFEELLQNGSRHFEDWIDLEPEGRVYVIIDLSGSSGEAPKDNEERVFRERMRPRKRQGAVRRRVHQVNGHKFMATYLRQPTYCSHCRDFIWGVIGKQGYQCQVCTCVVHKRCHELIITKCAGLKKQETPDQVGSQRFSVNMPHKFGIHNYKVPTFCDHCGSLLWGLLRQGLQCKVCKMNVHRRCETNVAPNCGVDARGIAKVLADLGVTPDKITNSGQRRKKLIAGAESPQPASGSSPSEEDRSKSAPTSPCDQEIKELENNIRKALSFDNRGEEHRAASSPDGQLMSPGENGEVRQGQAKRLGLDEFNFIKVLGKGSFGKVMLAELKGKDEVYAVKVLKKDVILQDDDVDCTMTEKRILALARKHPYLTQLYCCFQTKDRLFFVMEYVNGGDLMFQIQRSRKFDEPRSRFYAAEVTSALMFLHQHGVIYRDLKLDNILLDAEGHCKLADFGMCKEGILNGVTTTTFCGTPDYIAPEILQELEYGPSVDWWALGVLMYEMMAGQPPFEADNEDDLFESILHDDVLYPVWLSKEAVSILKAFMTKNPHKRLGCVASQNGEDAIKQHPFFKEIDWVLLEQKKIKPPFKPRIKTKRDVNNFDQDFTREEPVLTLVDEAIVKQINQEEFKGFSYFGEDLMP

KDR kinase = KDR kinase (Homo sapiens, UniProt P35968); experiment: KDR AlphaScreen assay; conditions: KDR IC50 (μM)
Pim2 kinase = Pim2 kinase (Homo sapiens, UniProt Q9P1W9); experiment: Pim2 ATP depletion assay; assay type: biochemical; conditions: read-out: IC50 (μM) PIM2;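 also: Luciferase-based luminescent readout of ATP remaining after PIM2 phosphorylates a BAD peptide, final 5 nM enzyme, 4 µM ATP, 10 µM peptide, 2.5% DMSO, run to roughly half ATP consumption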
Sequence of Pim2 kinase (Q9P1W9 whole entry): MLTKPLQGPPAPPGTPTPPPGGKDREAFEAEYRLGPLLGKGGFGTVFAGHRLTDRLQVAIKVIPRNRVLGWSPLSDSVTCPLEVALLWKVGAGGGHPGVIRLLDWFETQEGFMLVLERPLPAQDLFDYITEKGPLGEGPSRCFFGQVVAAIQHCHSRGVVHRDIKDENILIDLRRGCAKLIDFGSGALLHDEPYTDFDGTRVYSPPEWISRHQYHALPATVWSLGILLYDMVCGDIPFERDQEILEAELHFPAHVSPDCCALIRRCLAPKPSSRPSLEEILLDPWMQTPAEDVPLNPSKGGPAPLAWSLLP

Sequence of Pim1 kinase (P11309 whole entry): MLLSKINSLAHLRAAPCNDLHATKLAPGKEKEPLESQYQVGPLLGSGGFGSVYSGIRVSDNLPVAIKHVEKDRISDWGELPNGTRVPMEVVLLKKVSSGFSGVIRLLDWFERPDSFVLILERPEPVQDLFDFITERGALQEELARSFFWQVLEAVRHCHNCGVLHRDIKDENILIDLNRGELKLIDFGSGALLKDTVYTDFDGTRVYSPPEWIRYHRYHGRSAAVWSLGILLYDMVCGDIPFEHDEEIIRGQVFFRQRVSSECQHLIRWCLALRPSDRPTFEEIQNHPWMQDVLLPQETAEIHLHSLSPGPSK
Sequence of KDR kinase (P35968 20-1356): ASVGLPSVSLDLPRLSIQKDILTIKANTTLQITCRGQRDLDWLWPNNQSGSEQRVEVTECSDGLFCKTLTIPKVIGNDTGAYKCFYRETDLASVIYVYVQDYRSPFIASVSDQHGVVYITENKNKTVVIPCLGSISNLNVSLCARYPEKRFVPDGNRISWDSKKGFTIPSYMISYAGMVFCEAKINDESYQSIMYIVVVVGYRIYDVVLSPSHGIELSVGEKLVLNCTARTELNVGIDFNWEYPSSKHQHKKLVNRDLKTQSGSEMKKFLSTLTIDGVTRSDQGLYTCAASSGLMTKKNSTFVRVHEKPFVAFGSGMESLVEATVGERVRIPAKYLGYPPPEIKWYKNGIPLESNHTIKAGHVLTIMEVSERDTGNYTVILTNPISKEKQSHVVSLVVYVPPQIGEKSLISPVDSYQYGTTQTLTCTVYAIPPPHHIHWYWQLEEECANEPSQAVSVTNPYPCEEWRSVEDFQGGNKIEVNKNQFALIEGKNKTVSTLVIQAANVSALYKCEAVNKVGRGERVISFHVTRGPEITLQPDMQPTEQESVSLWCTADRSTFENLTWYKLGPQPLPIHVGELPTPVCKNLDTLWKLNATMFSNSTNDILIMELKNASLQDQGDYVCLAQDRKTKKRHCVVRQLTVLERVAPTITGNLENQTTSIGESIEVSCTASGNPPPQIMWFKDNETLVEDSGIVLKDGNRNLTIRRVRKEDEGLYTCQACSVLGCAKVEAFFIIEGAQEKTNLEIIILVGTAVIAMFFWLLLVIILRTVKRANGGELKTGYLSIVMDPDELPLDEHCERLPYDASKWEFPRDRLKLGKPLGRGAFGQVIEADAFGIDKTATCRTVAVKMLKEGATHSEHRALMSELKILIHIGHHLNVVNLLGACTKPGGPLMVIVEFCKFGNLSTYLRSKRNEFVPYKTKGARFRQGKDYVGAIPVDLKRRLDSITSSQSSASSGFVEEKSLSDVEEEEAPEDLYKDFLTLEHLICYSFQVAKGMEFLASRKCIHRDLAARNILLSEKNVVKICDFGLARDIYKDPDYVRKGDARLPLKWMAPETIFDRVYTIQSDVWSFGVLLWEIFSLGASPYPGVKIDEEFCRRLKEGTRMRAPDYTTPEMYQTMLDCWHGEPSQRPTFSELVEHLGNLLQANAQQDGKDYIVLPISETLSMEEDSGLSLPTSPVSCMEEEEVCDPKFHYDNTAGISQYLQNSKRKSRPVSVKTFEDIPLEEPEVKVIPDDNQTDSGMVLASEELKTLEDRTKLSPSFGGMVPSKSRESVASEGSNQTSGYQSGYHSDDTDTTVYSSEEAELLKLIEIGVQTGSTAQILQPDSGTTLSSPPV

## COc1ccc(-c2cnc(N)c(C(=O)Nc3cnccc3N3CCC(N)CC3)n2)cc1 [Example 367, 3-amino-6-(4-methoxy-phenyl)-pyrazine-2-carboxylic acid (4-amino-3,4,5,6-tetra-hydro-2H-[1,4′]bipyridinyl-3′-yl)-amide]
Pim1 kinase
  IC50: < 1 µM
Pim3 kinase
  IC50: < 1 µM
PC3 cells
  EC50: < 1 µM
[1]
  IC50: < 1000 nM
KDR kinase
  IC50: < 1 µM

## Nc1nccnc1C(=O)Nc1ccccc1N1CCC(N)CC1 [Example 203, 3-amino-N-[2-(4-aminopiperidin-1-yl)phenyl]pyrazine-2-carboxamide]
Pim1 kinase
  IC50: < 1 µM
Pim2 kinase
  IC50: 1 to 10 µM
Pim3 kinase
  IC50: < 1 µM
PC3 cells
  EC50: < 1 µM
[1]
  IC50: < 1000 nM
KDR kinase
  IC50: > 25 µM

## Nc1nccnc1C(=O)Nc1ccccc1N1CCC[C@H](N)C1 [Example 201, 3-amino-N-{2-[(3S)-3-amino-piperidin-1-yl]phenyl}pyrazine-2-carboxamide]
Pim1 kinase
  IC50: < 1 µM
Pim2 kinase
  IC50: < 1 µM
Pim3 kinase
  IC50: < 1 µM
PC3 cells
  EC50: 5 to 10 µM
[1]
  IC50: < 1000 nM
KDR kinase
  IC50: 10 to 25 µM

## COc1ccc(F)c(-c2cnc(N)c(C(=O)Nc3ccccc3N3CCC(N)CC3)n2)c1 [Example 393, 3-amino-6-(2-fluoro-5-methoxy-phenyl)-pyrazine-2-carboxylic acid [2-(4-amino-piperidin-1-yl)-phenyl]-amide]
Pim1 kinase
  IC50: < 1 µM
Pim2 kinase
  IC50: < 1 µM
Pim3 kinase
  IC50: < 1 µM
PC3 cells
  EC50: 1 to 5 µM

## Nc1ncc(-c2cccc3ccccc23)nc1C(=O)Nc1ccccc1N1CCNCC1 [Example 389, 3-amino-6-naphthalen-1-yl-pyrazine-2-carboxylic acid (2-piperazin-1-yl-phenyl)-amide]
Pim1 kinase
  IC50: < 1 µM
Pim2 kinase
  IC50: 1 to 10 µM
Pim3 kinase
  IC50: 1 to 10 µM
PC3 cells
  EC50: 1 to 5 µM
[1]
  IC50: < 1000 nM
KDR kinase
  IC50: 1 to 10 µM

## Nc1ncc(-c2ccccc2F)nc1C(=O)Nc1cnccc1N1CCC(N)CC1 [Example 368, 3-amino-6-(2-fluoro-phenyl)-pyrazine-2-carboxylic acid (4-amino-3,4,5,6-tetrahydro-2H-[1,4′]bipyridinyl-3′-yl)-amide]
Pim1 kinase
  IC50: < 1 µM
Pim3 kinase
  IC50: < 1 µM
PC3 cells
  EC50: < 1 µM
[1]
  IC50: < 1000 nM
KDR kinase
  IC50: < 1 µM

## Nc1nccnc1C(=O)Nc1ccc(F)cc1N1CCC(N)CC1 [Example 210, 3-amino-N-[2-(4-aminopiperidin-1-yl)-4-fluorophenyl]pyrazine-2-carboxamide]
Pim1 kinase
  IC50: < 1 µM
Pim2 kinase
  IC50: 1 to 10 µM
Pim3 kinase
  IC50: < 1 µM
PC3 cells
  EC50: < 1 µM

## Nc1nccnc1C(=O)Nc1c(F)cccc1N1CCC(N)CC1 [Example 209, 3-amino-N-[2-(4-aminopiperidin-1-yl)-6-fluorophenyl]pyrazine-2-carboxamide]
Pim1 kinase
  IC50: 10 to 25 µM
Pim2 kinase
  IC50: > 25 µM
Pim3 kinase
  IC50: > 25 µM
PC3 cells
  EC50: 1 to 5 µM

## Nc1nccnc1C(=O)Nc1cnccc1N1CCC(N)CC1 [Example 193, 3-amino-N-[4-(4-aminopiperidin-1-yl)pyridin-3-yl]pyrazine-2-carboxamide]
Pim1 kinase
  IC50: < 1 µM
Pim2 kinase
  IC50: 1 to 10 µM
Pim3 kinase
  IC50: < 1 µM
PC3 cells
  EC50: < 1 µM
[1]
  IC50: < 1000 nM

## COc1ccc(-c2cnc(N)c(C(=O)Nc3cnccc3N3CCCC(N)C3)n2)cc1 (stereo not drawn) [Example 370, 3-amino-6-(4-methoxy-phenyl)-pyrazine-2-carboxylic acid (3-amino-3,4,5,6-tetra-hydro-2H-[1,4′]bipyridinyl-3′-yl)-amide]
Pim1 kinase
  IC50: < 1 µM
Pim2 kinase
  IC50: < 1 µM
Pim3 kinase
  IC50: < 1 µM
PC3 cells
  EC50: 5 to 10 µM
[1]
  IC50: < 1000 nM
KDR kinase
  IC50: < 1 µM

## Cc1ccc(N2CCC(N)CC2)c(NC(=O)c2nccnc2N)c1 [Example 217, 3-amino-N-[2-(4-aminopiperidin-1-yl)-5-methylphenyl]pyrazine-2-carboxamide]
Pim1 kinase
  IC50: < 1 µM
Pim2 kinase
  IC50: > 25 µM
Pim3 kinase
  IC50: 1 to 10 µM
PC3 cells
  EC50: 5 to 10 µM
[1]
  IC50: 10000 to 25000 nM and < 1000 nM
KDR kinase
  IC50: > 25 µM and 10 to 25 µM

## Nc1nccnc1C(=O)Nc1ccccc1N1CCNCC1 [Example 202, 3-amino-N-(2-piperazin-1-ylphenyl)pyrazine-2-carbox-amide]
Pim1 kinase
  IC50: 1 to 10 µM
Pim2 kinase
  IC50: > 25 µM
Pim3 kinase
  IC50: 1 to 10 µM
PC3 cells
  EC50: 1 to 5 µM
[1]
  IC50: < 1000 nM
KDR kinase
  IC50: > 25 µM

## Nc1ncc(-c2ccccc2)nc1C(=O)Nc1cnccc1N1CCNCC1 [Example 359, 3-amino-6-phenyl-pyrazine-2-carboxylic acid (4-piperazin-1-yl-pyridin-3-yl)-amide]
Pim1 kinase
  IC50: < 1 µM
Pim2 kinase
  IC50: < 1 µM
Pim3 kinase
  IC50: < 1 µM
PC3 cells
  EC50: < 1 µM
[1]
  IC50: < 1000 nM
KDR kinase
  IC50: < 1 µM

## Nc1nccnc1C(=O)Nc1cc(F)ccc1N1CCC(N)CC1 [Example 208, 3-amino-N-[2-(4-aminopiperidin-1-yl)-5-fluorophenyl]pyrazine-2-carboxamide]
Pim1 kinase
  IC50: < 1 µM
Pim2 kinase
  IC50: 1 to 10 µM
Pim3 kinase
  IC50: < 1 µM
PC3 cells
  EC50: < 1 µM

## Nc1ncc(-c2ccccc2)nc1C(=O)Nc1ccccc1N1CCC(N)CC1 [Example 397, 3-amino-6-phenyl-pyrazine-2-carboxylic acid [2-(4-amino-piperidin-1-yl)-phenyl]-amide]
Pim1 kinase
  IC50: < 1 µM
Pim3 kinase
  IC50: < 1 µM
PC3 cells
  EC50: < 1 µM

## Nc1nc(N)c(C(=O)Nc2ccncc2N2CCCCC2)nc1Cl [Example 120, 3,5-diamino-6-chloro-N-(3-piperidin-1-ylpyridin-4-yl)-pyrazine-2-carboxamide]
Pim1 kinase
  IC50: < 1 µM
Pim2 kinase
  IC50: 1 to 10 µM
Pim3 kinase
  IC50: < 1 µM
PC3 cells
  EC50: 1 to 5 µM
[1]
  IC50: 1000 to 10000 nM

## Nc1nccnc1C(=O)Nc1cc(-c2ccn[nH]2)ccc1N1CCC(N)CC1 [Example 207, 3-amino-N-[2-(4-aminopiperidin-1-yl)-5-(1H-pyrazol-5-yl)phenyl]pyrazine-2-carbox-amide]
Pim1 kinase
  IC50: < 1 µM
Pim2 kinase
  IC50: 10 to 25 µM
Pim3 kinase
  IC50: < 1 µM
PC3 cells
  EC50: 5 to 10 µM

## Nc1ncc(-c2ccccc2F)nc1C(=O)Nc1cnccc1N1CCNCC1 [Example 363, 3-amino-6-(2-fluoro-phenyl)-pyrazine-2-carboxylic acid (4-piperazin-1-yl-pyridin-3-yl)-amide]
Pim1 kinase
  IC50: < 1 µM
Pim3 kinase
  IC50: < 1 µM
PC3 cells
  EC50: < 1 µM
[1]
  IC50: < 1000 nM
KDR kinase
  IC50: < 1 µM

## Nc1ncc(-c2ccccc2)nc1C(=O)Nc1cnccc1N1CCC(N)CC1 [Example 364, 3-amino-6-phenyl-pyrazine-2-carboxylic acid (4-amino-3,4,5,6-tetrahydro-2H-[1,4′]bi-pyridinyl-3′-yl)-amide]
Pim1 kinase
  IC50: < 1 µM
Pim3 kinase
  IC50: < 1 µM
PC3 cells
  EC50: < 1 µM
[1]
  IC50: < 1000 nM
KDR kinase
  IC50: < 1 µM and 1 to 10 µM

## COc1ccc(F)c(-c2cnc(N)c(C(=O)Nc3ccccc3N3CCNCC3)n2)c1 [Example 396, 3-amino-6-(2-fluoro-5-methoxy-phenyl)-pyrazine-2-carboxylic acid (2-piperazin-1-yl-phenyl)-amide]
Pim1 kinase
  IC50: < 1 µM
Pim2 kinase
  IC50: 1 to 10 µM
Pim3 kinase
  IC50: < 1 µM
PC3 cells
  EC50: 1 to 5 µM

## Nc1nccnc1C(=O)Nc1ccncc1N1CCCCC1 [Example 122, 3-amino-N-(3-piperidin-1-yl-pyridin-4-yl)pyrazine-2-carbox-amide]
Pim1 kinase
  IC50: < 1 µM
Pim2 kinase
  IC50: 1 to 10 µM
Pim3 kinase
  IC50: 1 to 10 µM
PC3 cells
  EC50: < 1 µM
[1]
  IC50: < 1000 nM

## COc1cc(-c2cnc(N)c(C(=O)Nc3ccccc3N3CCNCC3)n2)cc(OC)c1OC [Example 395, 3-amino-6-(3,4,5-trimethoxy-phenyl)-pyrazine-2-carboxylic acid (2-piperazin-1-yl-phenyl)-amide]
Pim1 kinase
  IC50: < 1 µM
Pim2 kinase
  IC50: > 25 µM
Pim3 kinase
  IC50: 1 to 10 µM
PC3 cells
  EC50: 1 to 5 µM
